Experimental data taken from patent publication US7030145B2, “Pyridinyl derivatives for the treatment of depression” (Bristol-Myers Squibb Company, priority 2003, dated 2006).

Columns and labels:
[1] = target: T1, cloned human CRF-R1 receptors (Homo sapiens, UniProt P34998); experiment: CRF-R1 receptor binding assay (inhibition of 125I-ovine-CRF binding to cell membranes); set-up: key to activity (Ki class in the CRF assays): a: Ki≦100 nM; b: 100 nM<Ki≦500 nM; c: 500 nM<Ki≦5,000 nM; activity reported in percent inhibition at 10 μM; conditions: membranes of 293EBNA cells transfected with hCRFR1, class d = reported as percent inhibition at 10 μM, figures not given; for Ki: read-out: activity (Ki class in the CRF assays)
T1 construct: the coding region was amplifies by PCR from start to stop codons; expressed in transfected cells; membranes
T1 sequence (P34998 24-415): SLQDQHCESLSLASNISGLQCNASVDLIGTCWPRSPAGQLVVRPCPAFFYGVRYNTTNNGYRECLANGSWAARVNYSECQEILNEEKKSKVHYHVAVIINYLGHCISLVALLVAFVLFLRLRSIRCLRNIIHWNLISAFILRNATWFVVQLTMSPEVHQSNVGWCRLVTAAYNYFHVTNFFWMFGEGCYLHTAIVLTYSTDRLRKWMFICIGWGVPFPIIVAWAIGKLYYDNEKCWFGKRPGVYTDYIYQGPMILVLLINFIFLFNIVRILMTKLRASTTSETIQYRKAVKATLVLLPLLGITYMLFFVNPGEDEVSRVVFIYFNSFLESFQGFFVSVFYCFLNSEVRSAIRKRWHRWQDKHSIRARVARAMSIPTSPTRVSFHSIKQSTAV
From the text: The following is a description of the isolation of cell membranes containing cloned human CRF-R1 receptors for use in a standard binding assay as well as a description of the assay itself.
Messenger RNA was isolated from human hippocampus. […]. The mRNA was reverse transcribed using oligo (dt) 12–18 and the coding region was amplifies by PCR from start to stop codons. The resulting PCR fragment was cloned into the EcoRV site of pGEMV, from whence the insert was reclaimed using XhoI+XbaI and cloned into the XhoI+XbaI sites of vector pm3 as (which contains a CMV promoter, the SV′t′ splice and early poly A signals, an Eptein-Barr viral origin of replication, and a hygromycin selectable marker). The resulting expression vector, called phchCRFR was transfected in 293EBNA cells and cells retaining the episome were selected in the presence of […] hygromycin. Cells surviving 4 weeks of selection in hygromycin were pooled, adapted to growth in suspension and used to generate membranes for the binding assay described below. Individual aliquots containing approximately 1×10^8 of the suspended cells were then centrifuged to form a pellet and frozen. For the binding assay a frozen pellet described above containing 293EBNA cells transfected with hCRFR1 receptors is homogenized in 10 mL of ice cold tissue buffer (50 mM HEPES buffer pH 7.0, containing 10 MM MgCl2, 2 mM EGTA, 1 μg/mL apotinin, 1 μg/mL leupeptin and 1 μg/mL pepstatin). The homoginate is centrifuged at 40,000×g for 12 min and the resulting pellet rehomogenized in 10 mL of tissue buffer. After another centrifugation at 40,000×g for 12 min, the pellet is resuspended to a protein concentration of 360 μg/mL to be used in the assay.
Binding assays are performed in 96 well plates; each well having a 300 μL capacity. To each well is added 50 μL of test drug dilutions (final concentration of drugs range from 10^−10–10^−5 M), 100 μL of ^125I-ovine-CRF (^125I-o-CRF) (final concentration 150 pM) and 150 μL of the cell homoginate described above. Plates are then allowed to incubate at room temperature for 2 hours before filtering the incubate over GF/F filters (presoaked with 0.3% polyethyleneimine) using an appropriate cell harvester. Filters are rinsed 2 times with ice cold assay buffer before removing individual filters and assessing them for radioactivity on a gamma counter.
Curves of the inhibition of ^125I-o-CRF binding to cell membranes at various dilutions of test drug are analyzed by the iterative curve fitting program LIGAND [P. J. Munson and D. Rodbard, Anal. Biochem., 107:220 (1980), which provides Ki values for inhibition which are then used to assess biological activity. […]
Messenger RNA was isolated from human hippocampus. The mRNA was isolated from human hippocampus. The mRNA was reverse transcribed using oligo (dt) 12–18 and the coding region was amplifies by PCR from start to stop codons. The resulting PCR fragment was cloned into the EcoRV site of pGEMV, from whence the insert was reclaimed using XhoI+XbaI and cloned into the XhoI+XbaI sites of vector pm3 as (which contains a CMV promoter, the SV′t′ splice and early poly A signals, an Eptein-Barr viral origin of replication, and a hygromycin selectable marker). The resulting expression vector, called phchCRFR was transfected in 293EBNA cells and cells retaining the episome were selected in the presence of […] hygromycin. Cells surviving 4 weeks of selection in hygromycin were pooled, adapted to growth in suspension and used to generate membranes for the binding assay described below. […]
A frozen pellet described above containing 293EBNA cells transfected with hCRFR1 receptors or the rat frontal cortex tissue dissected from frozen rat brains was prepared as the source of membranes expressing CRF1 receptors used in binding assays. […]

Ki [1] [nM] | melting point [°C] | activity (Ki class in the CRF assays) [1] | Structure (SMILES)
100 to 500 | 132 to 134 |  | CC(=O)OCc1ccc(S(=O)(=O)c2ccc(C)nc2Nc2c(C)cc(C)cc2C)cc1 [Example 55, Acetic acid 4-[6-methyl-2-(2,4,6-trimethylphenylamino)-pyridine-3-sulfonyl]-benzyl ester]
100 to 500 | 87 to 88 |  | COc1cccc(S(=O)(=O)c2ccc(C)nc2Nc2c(C)cc(C)cc2C)c1 [Example 56, [3-(3-Methoxybenzenesulfonyl)-6-methylpyridin-2-yl]-(2,4,6-trimethylphenyl)-amine]
100 to 500 | 196 to 197 |  | Cc1cc(C)c(Nc2nc(C)ccc2S(=O)(=O)c2cccc(O)c2)c(C)c1 [Example 57, 3-[6-Methyl-2-(2,4,6-trimethylphenylamino)-pyridine-3-sulfonyl]-phenol]
100 to 500 | 96 to 97 |  | CCOc1cccc(S(=O)(=O)c2ccc(C)nc2Nc2c(C)cc(C)cc2C)c1 [Example 58, [3-(3-Ethoxybenzenesulfonyl)-6-methylpyridin-2-yl]-(2,4,6-trimethylphenyl)-amine]
500 to 5000 |  |  | Cc1cc(C)c(NCc2ccc(S(=O)(=O)c3ccc(C)nc3Nc3c(C)cc(C)cc3C)cc2)c(C)c1 [Example 51, (6-Methyl-3-{4-[(2,4,6-trimethylphenylamino)-methyl]-benzenesulfonyl}-pyridin-2-yl)-(2,4,6-trimethylphenyl)-amine]
100 to 500 |  |  | CCc1ccc(S(=O)(=O)c2ccc(C)nc2Nc2ccc(C)cc2C)cc1 [Example 66, (2,4-Dimethylphenyl)-[3-(4-ethylbenzenesulfonyl)-6-methylpyridin-2-yl]-amine]
100 to 500 |  |  | COc1cccc(COc2cccc(S(=O)(=O)c3ccc(C)nc3Nc3c(C)cc(C)cc3C)c2)c1 [Example 62, {3-[3-(3-Methoxybenzyloxy)-benzenesulfonyl]-6-methylpyridin-2-yl}-(2,4,6-trimethylphenyl)-amine]
500 to 5000 |  |  | Cc1cc(C)c(Nc2nc(C)ccc2S(=O)(=O)c2ccc(C=O)cc2)c(C)c1 [Example 52, 4-[6-Methyl-2-(2,4,6-trimethylphenylamino)-pyridine-3-sulfonyl]-benzaldehyde]

Second part, the molecule before the results:

Structure (SMILES) | Ki [1] [nM] | melting point [°C] | activity (Ki class in the CRF assays) [1]
Cc1cc(C)c(Nc2nc(C)ccc2S(=O)(=O)c2ccc(F)c(Cl)c2)c(C)c1 [Example 37, [3-(3-Chloro-4-fluorobenzenesulfonyl)-6-methylpyridin-2-yl]-(2,4,6-trimethylphenyl)-amine] | 100 to 500 | 139 to 141 | 
Cc1cc(C)c(Nc2nc(C)ccc2S(=O)(=O)c2ccc(OCc3ccccc3C#N)cc2)c(C)c1 [Example 28, 2-{4-[6-Methyl-2-(2,4,6-trimethylphenylamino)-pyridine-3-sulfonyl]-phenoxymethyl}-benzonitrile] | ≤ 100 | 208 to 210 | 
Cc1cc(C)c(Nc2nc(C)ccc2S(=O)(=O)c2ccc(OCc3csc(C)n3)cc2)c(C)c1 [Example 21, {6-Methyl-3-[4-(2-methylthiazol-4-ylmethoxy)-benzenesulfonyl]-pyridin-2-yl}-(2,4,6-trimethylphenyl)-amine] | 100 to 500 | 200 to 201 | 
Cc1cc(C)c(Nc2nc(C)ccc2S(=O)(=O)c2ccc(OCc3ccccn3)cc2)c(C)c1 [Example 19, {6-Methyl-3-[4-(pyridin-2-ylmethoxy)-benzenesulfonyl]-pyridin-2-yl}-(2,4,6-trimethylphenyl)-amine] | 100 to 500 | 182 to 184 | 
Cc1cc(C)c(Nc2nc(C)ccc2S(=O)(=O)c2ccc(OCc3ccccc3[N+](=O)[O-])cc2)c(C)c1 [Example 29, {6-Methyl-3-[4-(2-nitrobenzyloxy)-benzenesulfonyl]-pyridin-2-yl}-(2,4,6-trimethylphenyl)-amine] | ≤ 100 | 153 to 155 | 
COc1ccccc1COc1ccc(S(=O)(=O)c2ccc(C)nc2Nc2cc(OC)c(OC)cc2C)cc1 [Example 4, (4,5-Dimethoxy-2-methylphenyl)-{3-[4-(2-methoxybenzyloxy)-benzenesulfonyl]-6-methylpyridin-2-yl}-amine] |  | 62 to 66 | d
Cc1cc(C)c(Nc2nc(C)ccc2S(=O)(=O)c2ccc(OCCCCC#N)cc2)c(C)c1 [Example 15, 5-{4-[6-Methyl-2-(2,4,6-trimethylphenylamino)-pyridine-3-sulfonyl]-phenoxy}-pentanenitrile] | 100 to 500 | 115 to 116 | 
Cc1cc(C)c(Nc2nc(C)ccc2S(=O)(=O)c2ccc(OCc3c(F)cccc3[N+](=O)[O-])cc2)c(C)c1 [Example 34, {3-[4-(2-Fluoro-6-nitrobenzyloxy)-benzenesulfonyl]-6-methyl-pyridin-2-yl}-(2,4,6-trimethylphenyl)-amine] | ≤ 100 | 132 to 134 | 
COc1ccc(OC)c(COc2ccc(S(=O)(=O)c3ccc(C)nc3Nc3c(C)cc(C)cc3C)cc2)c1 [Example 31, {3-[4-(2,5-Dimethoxybenzyloxy)-benzenesulfonyl]-6-methyl-pyridin-2-yl}-(2,4,6-trimethylphenyl)-amine] | ≤ 100 | 128 to 130 | 
Cc1cc(C)c(Nc2nc(C)ccc2S(=O)(=O)c2ccc(C)c(C)c2)c(C)c1 [Example 38, [3-(3,4-Dimethylbenzenesulfonyl)-6-methylpyridin-2-yl]-(2,4,6-trimethylphenyl)-amine] | 100 to 500 |  | 
C=CCOc1ccc(S(=O)(=O)c2ccc(C)nc2Nc2c(C)cc(C)cc2C)cc1 [Example 13, [3-(4-Allyloxybenzenesulfonyl)-6-methylpyridin-2-yl]-(2,4,6-trimethylphenyl)-amine] | 100 to 500 |  | 
COc1ccccc1-c1ccc(S(=O)(=O)c2ccc(C)nc2Nc2c(C)cc(C)cc2C)cc1 [Example 49, [3-(2′-Methoxybiphenyl-4-sulfonyl)-6-methylpyridin-2-yl]-(2,4,6-trimethylphenyl)-amine] | ≤ 100 |  | 
Cc1cc(C)c(Nc2nc(C)ccc2S(=O)(=O)c2ccc(C(C)C)cc2)c(C)c1 [Example 43, [3-(4-Isopropylbenzenesulfonyl)-6-methylpyridin-2-yl]-(2,4,6-trimethylphenyl)-amine] | 100 to 500 |  | 
Cc1cc(C)c(Nc2nc(C)ccc2S(=O)(=O)c2ccc(Cl)c(Cl)c2)c(C)c1 [Example 40, [3-(3,4-Dichlorobenzenesulfonyl)-6-methylpyridin-2-yl]-(2,4,6-trimethylphenyl)-amine] | 100 to 500 |  | 
Cc1ccc(S(=O)(=O)c2ccc(C)nc2Nc2c(C)cc(C)cc2C)cc1 [Example 41, [6-Methyl-3-(toluene-4-sulfonyl)-pyridin-2-yl]-(2,4,6-trimethylphenyl)-amine] | 100 to 500 |  | 
